From US4008219A, “4-Benzazonine derivatives and process for preparation thereof” (Nihon Iyakuhin Kogyo Co., Ltd., priority 1973, dated 1977) come the findings set out here.

Structures are written as SMILES. Where a name gives a salt, the structure may show the parent alone.

The nature of data set [1]: Hygroscopicity of the salt. Type of data set: physicochemical. Particulars: crystalline salt, cis-form.
In data set [2] the test system is mice of the ddN-series. The data set is described as follows: Analgesic test, Chemical Stimulus Method (Writhing Method). Type of data set: in vivo, mouse. The arrangement: scale not given here. The note with it: interabdominal injection, comparative value, scale not given. On the procedure:
(§1) Results of comparative tests where the medicinal effects of compounds of this invention were compared with those of known compounds such as pentazocine and codeine phosphate by employing mice and guinea pigs as the test animals are shown in the following Tables I and II.
Chemical Stimulus Method^1)
(interabdominal injection)
(§2) Tested Animal: mice of the ddN-series, .male., 20 ± 1 experimental
(§3) Conditions: temperature of 24 ± 1° C., relative humidity of 65
^1) R. Koster, M. Anderson and E. J. De Beer, Federation Proceedings, […]
In general terms: In writhing tests, fewer writhes than in controls are read as antinociception.

Data set [3] has as its system guinea pigs. As to the kind of experiment: Antitussive effect, Mechanical Stimulus Method. It is filed as in vivo, guinea pig.
Source text: as §1
(§4) Comparison of Antitusive Effects
Mechanical Stimulus Method^1)
1) Takagi et al modification [Journal of the Pharmaceutical Society of
Japan, 80, 1497 (1960)] of the test method of H. Konzett and E. Rothlin
[Experientia, 10, 472 (1954)], in which urethane was hypodermically
injected (15 mg/Kg) into guinea pigs and swine hairs were inserted into
the trachea to impart stimulus.

Another data set can be described thus: Acute Toxicity. The note with it: in vivo; mouse, intravenous injection. On the procedure: as §2, §3
Data set [4] has as its system guinea pigs. As to the kind of experiment: Antitussive effect, Chemical Stimulus Method (SO2 gas). The note with it: guinea pigs, SO2 gas. It is filed as in vivo, guinea pig.
Source text: as §1, §4
2) Takagi et al modification [Journal of Pharmaceutical Society of Japan,
80, 1497 (1960)] of the test method of H. Friebel, C. Reichle and A. V.
Gravenitz [Archiv Fur experimentalle Phathologie und Pharmakologie,
Naunyn-Schmiede-berg's, 224,384 (1955)], in which the test compound was
hypodermically injected into guinea pigs, 30 minutes after the injection
the quinea pigs were put into a desiccator filled with SO2 gas and
kept in the desiccator for 1 minute, then the guinea pigs were put into
another vessel and the degree of coughing was examined.

For data set [5], the system named is mice of the ddN-series. The data set is described as follows: Analgesic test, Pressure Stimulus Method. Type of data set: in vivo, mouse. The note with it: hypodermic injection, comparative value, pentazocine 1.0. On the procedure: as §1
Pressure Stimulus Method^3)
R (hypodermic injection)
as §2, §3
^3) A. F. Green, P. A. Yound and E. I. Godfrey; British Journal of
Pharmacology and Chemotherapy, 6, 572 (1951)

The test system of data set [6] is mice of the ddN-series. As to the kind of experiment: Analgesic test, Heat Stimulus Method (Hot Plate Method). Particulars: hypodermic injection, comparative value, scale not given. On the set-up: reference not given here. Type of data set: in vivo, mouse. On the procedure: as §1
Heat Stimulus Method^2)
as §2, §3
^2) G. Woolfe and A. D. Mac Donald; Journal of Pharmacology and […]
Background: Hot-plate and tail-flick tests time the reaction to a heat stimulus.

With `CCC12CCN(C)CC(C(O)c3ccc(OC)cc31)C2C` (stereo not shown) [Example 10, 4,12-dimethyl-1-ethyl-10-methoxy-2,3,4,5,6,7-hexahydro-1,6-methano-1H-4-benzazonin-7-ol], in data set [1], the hygroscopicity entry is given as “very hygroscopic”.
Turning to `COc1ccc2c(c1)C1(C)CCN(C)CC(C2O)C1C` (stereo not shown) [Example 12], in data set [1], the hygroscopicity entry is reported as “hygroscopic”.
As to `CC1C2CN(C)CCC1(C)c1ccccc1C2O` (stereo not shown) [Example 15], the hygroscopicity entry in data set [1] is “hygroscopic”.
Regarding `CC1C2Cc3ccc(O)cc3C1(C)CCN(C)C2` (stereo not shown) [Example 20], the hygroscopicity entry in data set [1] is listed as “hygroscopic”.
The same measure, in the same setting: the value for `CCC12CCN(C)CC(Cc3ccc(O)cc31)C2C` (stereo not shown) [Example 22] was “hygroscopic”; that for `CC1C2Cc3ccccc3C1(C)CCN(C)C2` (stereo not shown) [Example 23] was “hygroscopic”.
On to `OC1c2ccccc2C2CCN(CCc3ccccc3)CC1C2` (stereo not shown) [Example 59, hydrobromide], for which the solubility in water entry in the data set “Solubility in water” is recorded as “water-soluble”.
`CC1C2Cc3ccc(O)cc3C1(C)CCN(CCc1ccccc1)C2` (stereo not shown) [Example 87]: the hygroscopicity entry in data set [1] is “being hygro-”.
Take `CC(C)CCN1CCC2(C)c3cc(O)ccc3CC(C1)C2C` (stereo not shown) [Example 89]: the hygroscopicity entry in data set [1] is given as “being hygro-”.
Regarding `CC1C2Cc3ccc(O)cc3C1(C)CCN(C)C2` (stereo not shown) [Example 90], the hygroscopicity entry in data set [1] was “being hygro-”.
Broadly, the ED50 is the dose that gives a 50% effect, or the effect in half of the subjects. A word on the LD50: it is the dose at which mortality reaches 50%. As to `C=CCN1CCC2CC(C1)C(O)c1ccccc12` (stereo not shown) [R=H, R1=H, R2=H, CH2R3=CH2CHCH2, R4=OH, 4-allyl-2,3,4,5,6,7-hexahydro-1,6-methano-1H-4-benzazonin-7-ol], in the data set on mice of the ddN-series [2], the “Chemical Stimulus Method (Writhing Method)” value is recorded as 1.2. In addition, the solubility in water entry in the data set “Solubility in water” is “water soluble”. Also, the median effective dose (ED50) in the data set with guinea pigs [3] (Cavia porcellus, swine hairs inserted into the trachea) was found to be 18.9 mg/kg; in the data set with guinea pigs [4] (Cavia porcellus, sc, 0.5 h, hypodermic injection, 1 minute, 30 minutes after injection, read-out: ED50, Chemical Stimulus Method (antitussive)), 15.3 mg/kg. In addition, in the data set on guinea pigs [3] (codeine phosphate = 100), the “Effect Ratio to Codeine Phosphate, Mechanical Stimulus Method” value turned out to be 76.6. In addition, in “Acute Toxicity”, the LD50 worked out at 58 mg/kg. For the same compound, the “Effect Ratio to Codeine Phosphate, Chemical Stimulus Method” value in the data set on guinea pigs [4] (codeine phosphate = 100) worked out at 86.7. In the data set with mice of the ddN-series [5], the “Pressure Stimulus Method” value was 1.4. Also, in the data set with mice of the ddN-series [6], the “Heat Stimulus Method (Hot Plate Method)” value came to 1.4.
